# Read-outs that look alike come from different tables or passages of the source. Marks after values point to notes of the source that are not given here.
# Key:
# Candida albicans 595/20 = test: MIC/MFC, microdilution method (modified CLSI M27); type: cell-based; details: C. albicans 595/20 (clinical isolate), 28 °C, 24 h; for Minimum inhibitory concentration (MIC): 90% growth inhibition, YPG; for Minimum fungicidal concentration (MFC*): no growth on solid YPG
# Experimental: (§1) Minimum inhibitory concentration (MIC) and minimum fungicidal concentration (MFC) values were determined based on the modified CLSI M27 protocol. The study was performed using the microdilution method on sterile 96-well titration plates. The S. cerevisiae Σ1278b ATCC 42800, S. cerevisiae BY4741 ATCC 201388, C. albicans ATCC 10231, C. albicans 595/20 and R. mucilaginosa ATCC 4056 were incubated for 18 h at 28 °C (without shaking), then centrifuged (1000 rcf, 5 min), and the obtained pellet was suspended in fresh YPG medium and optical density (OD) = 0.25–0.3 was determined at a wavelength (λ) of 590 nm. Next, 10 μl of selected compounds at appropriate final concentrations (5–1280 μM) were spotted into the wells of the titration plate. Then, 80 μl of YPG medium and 10 μl of culture with a fixed OD were added. All tests were performed in triplicate. The plate was incubated at 28 °C for 24 h. The YPG medium was a negative control, while the prepared culture not treated with compounds was a positive control. […] The minimum inhibitory concentration was determined at 90% growth inhibition.
# (§2) In order to determine the MFC of selected gemini surfactants, 10 μl of culture was transferred to solid YPG medium from the wells of the titration plate in which MIC was observed and from wells with the compound with higher concentrations. The spotted suspensions were incubated at 28 °C for 24 h. After incubation, inhibition of the growth of microorganisms was observed.
# [1] = tested on: Candida albicans ATCC 10231; test: MIC/MFC, microdilution method (modified CLSI M27); type: cell-based; details: C. albicans ATCC 10231, 28 °C, 24 h; for Minimum inhibitory concentration (MIC): 90% growth inhibition, YPG; for Minimum fungicidal concentration (MFC*): no growth on solid YPG
# Experimental: as §1, §2
# [2] = tested on: Saccharomyces cerevisiae BY4741 ATCC 201388; test: MIC/MFC, microdilution method (modified CLSI M27); type: cell-based; details: S. cerevisiae BY4741, 28 °C, 24 h; for MIC: 90% growth inhibition, YPG, read-out: Minimum inhibitory concentration (MIC); for Minimum fungicidal concentration (MFC*): no growth on solid YPG
# Experimental: as §1, §2
# [3] = tested on: Rhodotorula mucilaginosa ATCC 4056; test: MIC/MFC, microdilution method (modified CLSI M27); type: cell-based; details: R. mucilaginosa ATCC 4056, 28 °C, 24 h
# Experimental: as §1, §2
# [4] = Critical micelle concentration (CMC), conductometric method; type: physicochemical; details: double distilled water, 25 °C
# Text: Alkanoyl chlorides (dodecanoyl, tetradecanoyl and hexadecanoyl) were obtained from Sigma-Aldrich. Anhydrous lactic acid (99%, crystalline) was purchased from Alfal. All solvents were obtained from Avantor Performance Materials or Stanlab and used as received. Methanol (solvent) for counterions exchange reactions was analytical grade (Avantor Performance Materials) and was additionally dried over CaH2 prior synthesis. Deuterated solvents were from Sigma-Aldrich. CMC values of surfactants were measured conductometrically in double distilled water at 25 °C.
# (§3) Elemental analysis was conducted utilizing Vario EL cube (Elementar, Germany) calibrated on acetanilide. Mass spectra were gain by electrospray ionization mass spectroscopy (ESI–MS) (micrOTOF-Q instrument; Bruker Daltonics, Germany). The ESI–MS aparatus was operated in the positive ion mode (calibrated with the Tunemix™ mixture; Bruker Daltonics; Germany), followed by spectra analysis by the DataAnalysis 3.4 software (Bruker Daltonics, Germany)—resolution of at least 5 ppm. Proton NMR and ^13C NMR measurements were performed on a Bruker AMX-500 spectrometer, utilizing CDCl3 or DMSO-d6 as a solvent. Proton and ^13C chemical shifts (given in ppm) were calibrated to TMS (δ = 0 ppm) as an internal reference. Krafft points were measured according to procedures described in our previous studies Lamch et al.,[82]. Values of CMC for all surfactants were measured utilizing the conductometric method for the compounds’ solutions in milliQ water in the same manner as described in Kula et al.. For all spectra: ^1H NMR, ^13C NMR and ESI–MS as well as appropriate comments see Electronic Supplementary Material.
# [5] = tested on: C. albicans ATCC 10231 biofilm; test: Biofilm eradication (crystal violet); type: cell-based, Candida albicans; details: 24 h biofilm, 4 h exposure, concentration not given (tested 20–1280 µM)
# Experimental: The culture of C. albicans ATCC 10231 was incubated with shaking for 18 h at 37 °C, centrifuged (1000 rcf, 5 min), and the pellet was suspended in PBS (pH 7.4) until OD = 0.8. 100 µl of the obtained culture was spotted into the wells of a 96-well plate and it was incubated at 37 °C for 24 h. After incubation, the culture was removed from the wells and rinsed with sterile distilled water. Then, 100 µl of the tested gemini QAS at concentrations of 20–1280 µM were added and incubated for 4 h at 37 °C. After this time, the compounds were removed, and the plates were rinsed with sterile distilled water and placed in an oven (60 °C, 20 min) to strengthen the formed biofilm. Then 100 µl of crystal violet (0.1%) was added and stained for 5 min. The plates were rinsed with sterile distilled water until there were no traces of purple in the rinse water, and 150 µl of washing mixture (1% SDS, 50 mmol HCl, 100% isopropanol) was added. Absorbance was measured at λ = 590 nm (BioTek 800 TS Absorbance Reader). The negative control was the medium, while the positive control was the culture wells to which the tested gemini QAS had not been added. The experiment was carried out based on a modification of the method of Obłąk et al.. The tested samples were performed in 3 repetitions.
# [6] = tested on: Salmonella Typhimurium TA98; test: Mutagenicity, Ames test; details: for Number of colonies: ± SD
# Experimental: (§4) The mutagenic potential of the tested gemini QAS was determined using the Ames test[83] using Salmonella Typhimurium TA98 and Salmonella Typhimurium TA100 with defects in histidine biosynthesis. The culture of S. Typhimurium TA98 and S. Typhimurium TA100 was incubated with shaking at 37 °C for 18 h, centrifuged (3000 rpm, 5 min) and OD = 1.5 was determined, at a wavelength of λ = 590 nm. The agar was dissolved and cooled to 42 °C. […] The media were incubated for 48 h at 37 °C. The positive control for the S. Typhimurium TA98 strain was acriflavin (100 μg/ml), and for the S. Typhimurium TA100 strain, sodium azide (15 μg/ml). The negative control was the culture without tested compound and with NaCl (0,9%). After incubation, the colonies were counted and the mutagenicity index (MR) was determined—the ratio of the number of revertants resulting from the mutagenic effect of the tested compound to the number of spontaneous revertants. Experiment was performed in three repetitions.
# [7] = tested on: Salmonella Typhimurium TA100; details: for Number of colonies: ± SD
# Experimental: as §4
# [8] = Krafft point (TK) determination; type: physicochemical
# Experimental: as §3
Structure (SMILES),Minimum inhibitory concentration (MIC) (Candida albicans 595/20),Minimum fungicidal concentration (MFC*) (Candida albicans 595/20),Minimum inhibitory concentration (MIC) [1],Minimum fungicidal concentration (MFC*) [1],MIC [2],Minimum fungicidal concentration (MFC*) [2],CMC [4],Destruction (eradication) of formed C. albicans biofilm [5],"Mutagenicity ratio (MR) ([6]; TA98, ¼ MIC)","Number of colonies ([6]; TA98, ¼ MIC)","Mutagenicity ratio (MR) ([6]; TA98, ½ MIC)","Number of colonies ([6]; TA98, ½ MIC)","Mutagenicity ratio (MR) ([7]; TA100, ¼ MIC)","Number of colonies ([7]; TA100, ¼ MIC)","Mutagenicity ratio (MR) ([7]; TA100, ½ MIC)","Number of colonies ([7]; TA100, ½ MIC)",TK (Krafft point) [8],also measured
CCCCCCCCCCCCCCCC(=O)N(CCCN(CCC[N+](C)(C)C)C(=O)CCCCCCCCCCCCCCC)CCC[N+](C)(C)C [2xC16LaG3],> 1280 > 1280* µM,> 1280 > 1280* µM,> 1280 > 1280* µM,> 1280 > 1280* µM,640 µM,> 1280 µM,3.7*10^–7 mol/dm^3,approximately 20%,1.12,30.7 ± 1.15,1.35,37.0 ± 3.46,0.99,197.7 ± 1.53,1.06,213.0 ± 4.24,< 0 °C,"MIC ([3]; 90% growth inhibition, YPG, read-out: Minimum inhibitory concentration (MIC)): 80 µM; MFC ([3]; no growth on solid YPG, read-out: Minimum fungicidal concentration (MFC*)): 640 µM"
"CCCCCCCCCCCCCCCC(=O)N(CCCN(CCC[N+](C)(C)C)C(=O)CCCCCCCCCCCCCCC)CCC[N+](C)(C)C [2xC16MeCO3G3, dimethyl{{3-[N-(3-{N-[3-(dimethylammonium)propyl]hexadecylamido}propyl}hexadecylamido}propyl}}ammonium dimethylcarbonate]",> 1280 > 1280* µM,> 1280 > 1280* µM,> 1280 > 1280* µM,> 1280 > 1280* µM,640 µM,1280 µM,1.6*10^–6 mol/dm^3,approximately 80%,1.55,35.3 ± 5.03,1.85,42.0 ± 2.16,1.43,398.0 ± 2.83,1.76,490.5 ± 3.54,~ 5 °C,"Minimum inhibitory concentration (MIC) ([3]; 90% growth inhibition, YPG): 640 640* µM; Minimum fungicidal concentration (MFC*) ([3]; no growth on solid YPG): 640 640* µM"

# Reference: PMC11187217, “Anti-adhesive, anti-biofilm and fungicidal action of newly synthesized gemini quaternary ammonium salts” (Scientific Reports, 2024)
